Data reported in ChEMBL document CHEMBL4371076 (J Med Chem, 2019).
The source made the active and inactive calls.

Key:
[1] = Metabolic stability in human liver microsomes assessed as parent compound remaining at 0.5 uM after 10 mins; type: ADME, Microsome; details: read-out: Stability
[2] = Metabolic stability in rat liver microsomes assessed as parent compound remaining at 0.5 uM after 10 mins; type: ADME, Microsome; details: read-out: Stability
[3] = Fraction unbound in mouse plasma; type: ADME, cell-free
[4] = Permeability from basolateral to apical side in human Caco2 cells; type: ADME, cell-based; details: Caco-2, read-out: permeability
[5] = target: T1, Cytochrome P450 2C8 (Homo sapiens, UniProt P10632); assay: Inhibition of CYP2C8 in human liver microsomes; type: ADME
T1 sequence (P10632 whole entry): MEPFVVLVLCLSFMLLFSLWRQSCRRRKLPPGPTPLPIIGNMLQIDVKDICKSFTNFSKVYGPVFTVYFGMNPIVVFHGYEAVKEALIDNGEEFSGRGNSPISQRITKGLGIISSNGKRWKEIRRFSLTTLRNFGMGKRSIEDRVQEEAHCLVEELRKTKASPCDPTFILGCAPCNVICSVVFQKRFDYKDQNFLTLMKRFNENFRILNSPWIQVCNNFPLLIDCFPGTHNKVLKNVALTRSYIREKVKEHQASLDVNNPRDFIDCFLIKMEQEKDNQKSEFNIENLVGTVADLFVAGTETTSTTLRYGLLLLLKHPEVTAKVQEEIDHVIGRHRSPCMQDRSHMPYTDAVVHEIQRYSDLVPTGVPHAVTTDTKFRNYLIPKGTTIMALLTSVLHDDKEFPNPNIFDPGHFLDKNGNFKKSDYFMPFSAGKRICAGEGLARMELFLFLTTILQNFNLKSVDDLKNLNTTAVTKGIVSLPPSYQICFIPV

[6] = target: Cytochrome P450 2C9 (Homo sapiens, UniProt P11712); assay: Inhibition of CYP2C9 in human liver microsomes; type: ADME
[7] = target: T2, Cytochrome P450 2B6 (Homo sapiens, UniProt P20813); assay: Time-dependant inhibition of CYP2B6 in human liver microsomes; type: ADME
T2 sequence (P20813 whole entry): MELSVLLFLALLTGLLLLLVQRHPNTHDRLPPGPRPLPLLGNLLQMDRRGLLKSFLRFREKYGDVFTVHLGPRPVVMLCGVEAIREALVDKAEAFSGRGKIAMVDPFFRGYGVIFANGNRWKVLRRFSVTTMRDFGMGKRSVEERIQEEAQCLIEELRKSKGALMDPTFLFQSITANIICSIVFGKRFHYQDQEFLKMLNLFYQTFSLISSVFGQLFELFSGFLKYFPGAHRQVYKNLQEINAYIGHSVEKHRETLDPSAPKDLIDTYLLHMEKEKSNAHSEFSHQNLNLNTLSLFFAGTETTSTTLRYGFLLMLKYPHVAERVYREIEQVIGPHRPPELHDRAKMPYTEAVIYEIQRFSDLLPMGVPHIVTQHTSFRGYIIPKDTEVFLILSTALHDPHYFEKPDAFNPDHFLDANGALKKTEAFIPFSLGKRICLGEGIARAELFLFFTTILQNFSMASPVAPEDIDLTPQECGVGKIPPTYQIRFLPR

[8] = target: T1, Cytochrome P450 2C8; assay: Time-dependant inhibition of CYP2C8 in human liver microsomes; type: ADME
[9] = target: Cytochrome P450 2C19 (Homo sapiens, UniProt P33261); assay: Time-dependant inhibition of CYP2C19 in human liver microsomes; type: ADME
[10] = target: Sodium channel protein type 9 subunit alpha (Mus musculus, UniProt Q62205); assay: Inhibition of recombinant mouse Nav1.7 expressed in HEK293 cells at -70 mV holding potential by patch clamp electrophysiology method; type: cell-based
[11] = Fraction unbound in mouse DRG neurons; type: ADME, cell-based, DRG neuron
[12] = Fraction unbound in mouse trigeminal ganglia neuron tissue; type: ADME, tissue-based, Trigeminal ganglion
[13] = target: Sodium channel protein type 2 subunit alpha (Homo sapiens, UniProt Q99250); assay: Inhibition of human Nav1.2 expressed in HEK293 cells after 600 secs at -60 mV holding potential by ion works barracuda population patch clamp method; type: cell-based
[14] = target: Sodium channel protein type 4 subunit alpha (Homo sapiens, UniProt P35499); assay: Inhibition of human Nav1.4 expressed in HEK293 cells after 600 secs at -60 mV holding potential by ion works barracuda population patch clamp method; type: cell-based
[15] = system: Mus musculus; assay: Analgesic activity in CD1 mouse model of CFA-induced thermal hyperalgesia assessed as reduction in thermal response latency at 30 mg/kg, ip administered 72 hrs post CFA challenge and measured at 60 mins post dose by Hargreave's test; type: functional, organism-based
[16] = Plasma concentration in CD1 mouse model of CFA-induced thermal hyperalgesia at 3 to 30 mg/kg, ip; type: ADME, organism-based; details: in vivo
[17] = system: Mus musculus; assay: Effect on thermal response latency in contralateral paw in CD1 mouse model of CFA-induced thermal hyperalgesia at 30 mg/kg, ip administered 72 hrs post CFA challenge and measured at 60 mins post dose by Hargreave's test; type: organism-based; details: in vivo, 1 h
[18] = system: Mus musculus; assay: Antinociceptive activity in CD1 mouse model of chronic constriction injury-induced cold allodynia assessed as increase in latency in response to cold at 30 mg/kg, ip dosed 30 mins before testing starting at 5 weeks after surgery relative to control; type: functional
[19] = Plasma concentration in CD1 mouse model of chronic constriction injury-induced cold allodynia at 3 mg/kg, ip dosed at 5 weeks post surgery and measured 60 mins post dose; type: ADME, organism-based
[20] = Plasma concentration in CD1 mouse model of chronic constriction injury-induced cold allodynia at 10 mg/kg, ip dosed at 5 weeks post surgery and measured 60 mins post dose; type: ADME, organism-based
[21] = Plasma concentration in CD1 mouse model of chronic constriction injury-induced cold allodynia at 30 mg/kg, ip dosed at 5 weeks post surgery and measured 60 mins post dose; type: ADME, organism-based
[22] = Unbound plasma concentration in CD1 mouse model of chronic constriction injury-induced cold allodynia at 3 mg/kg, ip dosed at 5 weeks post surgery and measured 60 mins post dose; type: ADME, organism-based; details: in vivo, 1 h
[23] = Unbound plasma concentration in CD1 mouse model of chronic constriction injury-induced cold allodynia at 30 mg/kg, ip dosed at 5 weeks post surgery and measured 60 mins post dose; type: ADME, organism-based; details: in vivo, 1 h
[24] = species: Mus musculus; assay: Reduction in mechanoreceptor-mediated afferent transmission in mouse sural nerve assessed as decrease in mechanically elicited afferent firing at 10 to 30 uM measured at 20 mins post dose at 1.6 to 980 mN threshold pressure; type: functional, tissue-based
[25] = Ratio of fraction unbound in mouse DRG neurons to IC50 for mouse DRG Nav1.7 at -70 mV holding potential by patch clamp electrophysiology method
[26] = system: Mus musculus; assay: Analgesic activity in CD1 mouse model of formalin-induced nociception assessed as reduction in formalin-evoked paw flinching/licking response during first phase at 30 mg/kg, po pretreated for 30 mins followed by formalin treatment and measured during first 5 mins post formalin injection; type: functional, organism-based
[27] = Toxicity in CD1 mouse model of formalin-induced nociception assessed as prostration or sedation at 30 mg/kg, po; type: organism-based; details: in vivo
[28] = Unbound plasma concentration in CD1 mouse model of formalin-induced nociception at 30 mg/kg, po; type: ADME, organism-based; details: in vivo
[29] = Unbound drug level in DRG neurons of CD1 mouse model of formalin-induced nociception at 30 mg/kg, po; type: ADME, organism-based, DRG neuron; details: in vivo
[30] = Fraction unbound in rat trigeminal ganglia neuron tissue; type: ADME, tissue-based, Trigeminal ganglion

Chain of Cytochrome P450 2C19 (P33261 whole entry): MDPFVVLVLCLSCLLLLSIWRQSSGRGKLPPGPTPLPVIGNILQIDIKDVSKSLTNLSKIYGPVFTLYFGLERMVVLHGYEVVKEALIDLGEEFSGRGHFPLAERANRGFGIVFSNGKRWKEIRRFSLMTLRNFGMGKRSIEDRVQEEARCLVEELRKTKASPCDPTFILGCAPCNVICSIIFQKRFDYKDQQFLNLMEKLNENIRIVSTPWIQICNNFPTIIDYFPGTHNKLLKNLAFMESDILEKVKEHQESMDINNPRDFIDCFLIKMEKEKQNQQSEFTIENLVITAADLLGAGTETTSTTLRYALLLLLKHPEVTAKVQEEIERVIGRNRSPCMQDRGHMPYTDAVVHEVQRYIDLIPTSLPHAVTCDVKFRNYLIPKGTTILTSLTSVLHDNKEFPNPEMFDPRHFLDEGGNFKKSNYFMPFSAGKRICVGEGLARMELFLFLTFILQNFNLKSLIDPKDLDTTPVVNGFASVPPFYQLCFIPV
Chain of Cytochrome P450 2C9 (P11712 whole entry): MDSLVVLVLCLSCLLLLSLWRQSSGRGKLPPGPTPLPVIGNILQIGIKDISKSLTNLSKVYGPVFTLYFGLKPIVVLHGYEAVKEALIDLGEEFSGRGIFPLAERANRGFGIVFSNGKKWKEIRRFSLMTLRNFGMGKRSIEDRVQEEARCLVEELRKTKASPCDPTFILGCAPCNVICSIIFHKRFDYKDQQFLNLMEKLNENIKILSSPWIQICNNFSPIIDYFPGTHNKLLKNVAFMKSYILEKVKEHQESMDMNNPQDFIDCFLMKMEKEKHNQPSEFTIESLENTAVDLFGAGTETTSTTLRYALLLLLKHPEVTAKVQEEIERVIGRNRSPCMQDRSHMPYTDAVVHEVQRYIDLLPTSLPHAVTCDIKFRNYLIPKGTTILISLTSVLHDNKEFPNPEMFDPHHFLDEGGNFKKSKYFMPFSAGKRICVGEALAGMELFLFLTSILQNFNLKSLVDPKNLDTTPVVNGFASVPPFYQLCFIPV
Chain of Sodium channel protein type 9 subunit alpha (Q62205 whole entry): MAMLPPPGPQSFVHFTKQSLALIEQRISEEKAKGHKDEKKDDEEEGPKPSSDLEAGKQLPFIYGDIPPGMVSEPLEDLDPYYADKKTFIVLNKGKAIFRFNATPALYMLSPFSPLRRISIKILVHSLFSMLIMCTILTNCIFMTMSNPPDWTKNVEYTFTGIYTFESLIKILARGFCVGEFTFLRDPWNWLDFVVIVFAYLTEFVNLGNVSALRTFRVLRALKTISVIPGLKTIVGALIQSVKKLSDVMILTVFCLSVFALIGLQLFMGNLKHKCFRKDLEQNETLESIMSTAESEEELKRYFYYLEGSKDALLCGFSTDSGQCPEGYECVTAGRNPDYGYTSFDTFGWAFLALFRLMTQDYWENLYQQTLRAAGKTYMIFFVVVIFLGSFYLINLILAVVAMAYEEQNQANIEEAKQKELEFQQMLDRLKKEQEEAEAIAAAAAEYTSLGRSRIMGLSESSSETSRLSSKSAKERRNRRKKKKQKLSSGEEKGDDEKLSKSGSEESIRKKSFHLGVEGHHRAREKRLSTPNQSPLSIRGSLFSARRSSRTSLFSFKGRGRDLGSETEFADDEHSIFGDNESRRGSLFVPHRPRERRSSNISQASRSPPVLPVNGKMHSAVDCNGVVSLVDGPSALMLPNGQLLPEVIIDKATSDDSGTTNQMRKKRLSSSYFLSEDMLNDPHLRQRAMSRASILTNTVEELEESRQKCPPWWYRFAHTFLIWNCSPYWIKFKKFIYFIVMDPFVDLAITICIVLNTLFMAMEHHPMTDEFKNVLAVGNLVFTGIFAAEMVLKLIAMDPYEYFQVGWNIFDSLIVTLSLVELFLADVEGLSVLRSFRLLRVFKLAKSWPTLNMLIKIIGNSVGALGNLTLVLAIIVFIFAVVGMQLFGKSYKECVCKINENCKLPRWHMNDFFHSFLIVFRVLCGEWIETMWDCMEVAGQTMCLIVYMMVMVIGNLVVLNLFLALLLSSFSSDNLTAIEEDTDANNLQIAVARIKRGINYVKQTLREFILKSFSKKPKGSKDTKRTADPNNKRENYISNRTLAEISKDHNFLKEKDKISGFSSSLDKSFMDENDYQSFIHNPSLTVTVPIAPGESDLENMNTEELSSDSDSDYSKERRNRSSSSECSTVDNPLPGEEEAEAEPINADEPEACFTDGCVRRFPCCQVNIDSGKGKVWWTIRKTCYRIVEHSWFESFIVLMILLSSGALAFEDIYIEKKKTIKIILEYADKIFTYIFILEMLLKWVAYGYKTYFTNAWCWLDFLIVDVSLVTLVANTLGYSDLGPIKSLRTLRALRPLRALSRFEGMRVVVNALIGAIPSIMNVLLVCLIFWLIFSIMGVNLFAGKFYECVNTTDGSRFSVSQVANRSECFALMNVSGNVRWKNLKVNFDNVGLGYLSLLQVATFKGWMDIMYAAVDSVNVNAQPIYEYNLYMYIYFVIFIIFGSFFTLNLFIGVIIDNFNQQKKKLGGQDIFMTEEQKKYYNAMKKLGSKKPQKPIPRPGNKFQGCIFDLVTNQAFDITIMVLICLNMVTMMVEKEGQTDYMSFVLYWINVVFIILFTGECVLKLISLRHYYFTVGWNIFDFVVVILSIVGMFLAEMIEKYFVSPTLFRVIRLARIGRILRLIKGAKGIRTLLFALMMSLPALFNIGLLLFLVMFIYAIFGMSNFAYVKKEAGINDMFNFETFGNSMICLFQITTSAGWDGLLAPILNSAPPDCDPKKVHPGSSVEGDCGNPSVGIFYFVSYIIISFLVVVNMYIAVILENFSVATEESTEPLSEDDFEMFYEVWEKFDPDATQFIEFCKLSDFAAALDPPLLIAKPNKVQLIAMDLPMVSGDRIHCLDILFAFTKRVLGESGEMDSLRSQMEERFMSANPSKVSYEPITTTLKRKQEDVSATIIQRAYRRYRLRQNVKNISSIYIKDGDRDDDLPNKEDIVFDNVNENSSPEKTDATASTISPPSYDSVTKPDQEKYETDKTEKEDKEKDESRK
Chain of Sodium channel protein type 2 subunit alpha (Q99250 whole entry): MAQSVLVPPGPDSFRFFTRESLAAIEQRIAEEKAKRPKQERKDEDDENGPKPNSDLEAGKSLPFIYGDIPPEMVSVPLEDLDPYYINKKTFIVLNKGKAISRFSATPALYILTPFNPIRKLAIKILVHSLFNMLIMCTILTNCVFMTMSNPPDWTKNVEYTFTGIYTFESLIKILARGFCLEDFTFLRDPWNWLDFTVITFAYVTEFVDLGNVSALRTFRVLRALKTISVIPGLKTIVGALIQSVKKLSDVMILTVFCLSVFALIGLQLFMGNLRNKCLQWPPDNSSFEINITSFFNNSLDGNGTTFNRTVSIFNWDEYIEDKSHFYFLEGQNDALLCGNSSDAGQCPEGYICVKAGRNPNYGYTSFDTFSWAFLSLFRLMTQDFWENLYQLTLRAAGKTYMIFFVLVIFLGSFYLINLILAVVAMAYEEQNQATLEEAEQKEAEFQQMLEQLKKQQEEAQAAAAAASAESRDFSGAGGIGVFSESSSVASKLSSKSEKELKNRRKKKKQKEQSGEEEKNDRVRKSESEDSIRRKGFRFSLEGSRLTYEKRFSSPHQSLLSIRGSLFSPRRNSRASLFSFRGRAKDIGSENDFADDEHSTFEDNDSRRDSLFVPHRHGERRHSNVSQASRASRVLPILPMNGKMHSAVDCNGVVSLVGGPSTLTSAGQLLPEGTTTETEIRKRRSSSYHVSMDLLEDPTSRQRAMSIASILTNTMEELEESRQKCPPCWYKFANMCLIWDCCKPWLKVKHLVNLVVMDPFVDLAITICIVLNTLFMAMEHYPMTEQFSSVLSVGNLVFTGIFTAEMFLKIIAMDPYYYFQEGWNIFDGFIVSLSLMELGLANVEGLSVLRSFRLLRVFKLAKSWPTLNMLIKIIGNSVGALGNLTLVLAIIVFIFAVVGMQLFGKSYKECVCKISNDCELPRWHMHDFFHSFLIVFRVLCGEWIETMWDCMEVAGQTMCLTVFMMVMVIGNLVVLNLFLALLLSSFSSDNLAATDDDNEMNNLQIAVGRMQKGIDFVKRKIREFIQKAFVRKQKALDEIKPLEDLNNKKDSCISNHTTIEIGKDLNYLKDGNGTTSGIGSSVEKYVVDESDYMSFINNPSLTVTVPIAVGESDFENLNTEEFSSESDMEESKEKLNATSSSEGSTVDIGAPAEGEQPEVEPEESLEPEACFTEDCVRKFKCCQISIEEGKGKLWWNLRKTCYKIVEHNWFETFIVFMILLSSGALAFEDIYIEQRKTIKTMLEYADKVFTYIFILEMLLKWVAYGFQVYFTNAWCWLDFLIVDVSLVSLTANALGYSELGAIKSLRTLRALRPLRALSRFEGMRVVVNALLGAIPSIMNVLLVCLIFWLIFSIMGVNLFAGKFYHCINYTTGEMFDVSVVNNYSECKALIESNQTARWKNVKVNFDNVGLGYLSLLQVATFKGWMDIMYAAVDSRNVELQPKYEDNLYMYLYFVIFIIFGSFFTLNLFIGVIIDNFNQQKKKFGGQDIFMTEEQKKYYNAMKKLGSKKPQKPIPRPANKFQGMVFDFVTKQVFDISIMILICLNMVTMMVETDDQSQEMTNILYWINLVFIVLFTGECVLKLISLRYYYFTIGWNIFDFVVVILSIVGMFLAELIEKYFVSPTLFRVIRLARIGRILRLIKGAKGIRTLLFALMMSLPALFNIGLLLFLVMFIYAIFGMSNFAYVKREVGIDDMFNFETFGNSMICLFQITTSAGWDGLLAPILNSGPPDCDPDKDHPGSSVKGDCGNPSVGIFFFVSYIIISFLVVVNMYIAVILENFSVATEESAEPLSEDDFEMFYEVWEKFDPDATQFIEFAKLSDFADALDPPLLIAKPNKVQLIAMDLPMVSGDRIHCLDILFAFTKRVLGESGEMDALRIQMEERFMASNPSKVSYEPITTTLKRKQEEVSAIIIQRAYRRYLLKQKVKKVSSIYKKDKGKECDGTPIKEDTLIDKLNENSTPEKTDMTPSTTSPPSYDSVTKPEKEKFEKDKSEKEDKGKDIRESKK

| remaining at 10 min, 0.5 µM [1] | remaining at 10 min, 0.5 µM [2] | fraction unbound [3] | Papp B→A [4] | IC50 [5] | IC50 [6] | TDI [7] | TDI [8] | TDI [9] | IC50 [10] | fraction unbound [11] | fraction unbound [12] | concentration [16] | Ratio [25] | Structure (SMILES) | Activity [15] | other results |
| --- | --- | --- | --- | --- | --- | --- | --- | --- | --- | --- | --- | --- | --- | --- | --- | --- |
| 95% | 66% | 0.002 | 16.8 ×10⁻⁶ cm/s | 1000 nM | 9900 nM | Not Active | Not Active | Not Active | 35 nM | 0.035 | 0.035 | 63 µM | 8.7 | CC(C)COc1ncc(-c2cn(C)c3cc(C(=O)NS(C)(=O)=O)ccc23)cc1Cl | Active | IC50 [13]: 16000 nM; IC50 [14]: 4800 nM; Activity [17]: Non-Toxic; Activity [18]: 25%; concentration at 1 h [19]: 3.3 µM; concentration at 1 h [20]: 27 µM; concentration at 1 h [21]: 68 µM; Cp(f) [22]: 0.0066 µM; Cp(f) [23]: 0.136 µM; Activity [24]: Active |
| 98% | 98% | 0.014 | 18.6 ×10⁻⁶ cm/s | 1000 nM | 27000 nM | Not Active | Not Active | Not Active | 115 nM | 0.085 | 0.069 | 38 µM | 5.5 | CC(C)COc1ccc(-c2cn(C)c3cc(C(=O)NS(C)(=O)=O)c(F)cc23)cn1 | inactive | Activity [26]: inactive; Activity [27]: Non-Toxic; Cp(f) [28]: 0.616 µM; Drug uptake(free) [29]: 84 nM; fraction unbound [30]: 0.045 |
